The text below walks through data of patent publication US12564639B2, “Cationic nanostructures for intra-cartilage delivery of contrast agents and diagnostic uses thereof” (Northeastern University, priority 2019, dated 2026).

In series [1] the test system is IL-1α treated cartilage explants. The series is described as follows: IL-1α treated cartilage explant culture OA model: GAG loss (DMMB assay). In kind it is cell-based, bovine. The following applies: 16-day culture. From the text: Tissue explants for all treatment conditions were matched for depth and location to prevent any bias. […] Note that mAv here refers to 1:4 mAv configuration. Media was changed every 2 days and IL-1α was replenished at each medium change. […] IL-1α concentration was chosen as it represents a moderately aggressive cytokine treatment. […] After 16 days of culture, cartilage explants were weighed and digested in proteinase K. The cumulative GAGs released to the media and residual GAGs in the digested explants were measured using the DMMB assay. Nitrite content was measured using the Griess assay as an indicator of nitric oxide (NO) release from tissues. Equal volumes of Griess reagent and culture media collected every two days were mixed and incubated at room temperature for 15 min, and absorbance at 540 nm was measured using a plate reader. Sodium nitrite was used as a standard.

Series [2] has the same test system. The series is described as follows: IL-1α treated cartilage explant culture OA model: nitrite release (Griess assay). In kind it is cell-based, bovine. The conditions noted are these: continuous dose 100 nM, Day 8. The procedure: 3 mm diameter cartilage explants harvested from calf knee joints were equilibrated separately in serum free culture media containing 96.2% low-glucose DMEM, 1.0% HEPES, 1.0% NEAA, 1.0% PSA, 0.4% proline and 0.4% ascorbic acid for 48 h at 37° C., 5% CO2 for 2 days prior to treatment. Tissue explants for all treatment conditions were matched for depth and location to prevent any bias. To test the biological effectiveness of mAv-Dex, equilibrated cartilage explants were treated with or without IL-1α (2 ng/mL) for 16 days in combination with (i) a single dose of 100 nM free Dex, (ii) a continuous dose of 100 nM free Dex, (iii) a single dose of 10 μM free Dex (iv) a single dose of fast release mAv-Dex (10 μM Dex) or (v) a single dose of controlled release mAv-Dex (2:1:1) (10 μM Dex). […]
After 16 days of culture, cartilage explants were weighed and digested in proteinase K. The cumulative GAGs released to the media and residual GAGs in the digested explants were measured using the DMMB assay. Nitrite content was measured using the Griess assay as an indicator of nitric oxide (NO) release from tissues. Equal volumes of Griess reagent and culture media collected every two days were mixed and incubated at room temperature for 15 min, and absorbance at 540 nm was measured using a plate reader. […]
On the technique in general: Nitrite, measured by Griess reagent, commonly stands in for NO production.

Series [3] has as its system chondrocytes in cartilage explants. Briefly: IL-1α treated cartilage explant culture OA model: chondrocyte viability (FDA/PI). The conditions noted are these: Day 16. In kind it is cell-based. The procedure: (§1) 3 mm diameter cartilage explants harvested from calf knee joints were equilibrated separately in serum free culture media containing 96.2% low-glucose DMEM, 1.0% HEPES, 1.0% NEAA, 1.0% PSA, 0.4% proline and 0.4% ascorbic acid for 48 h at 37° C., 5% CO2 for 2 days prior to treatment. Tissue explants for all treatment conditions were matched for depth and location to prevent any bias. To test the biological effectiveness of mAv-Dex, equilibrated cartilage explants were treated with or without IL-1α (2 ng/mL) for 16 days in combination with (i) a single dose of 100 nM free Dex, (ii) a continuous dose of 100 nM free Dex, (iii) a single dose of 10 μM free Dex (iv) a single dose of fast release mAv-Dex (10 μM Dex) or (v) a single dose of controlled release mAv-Dex (2:1:1) (10 μM Dex). To evaluate the effect of mAv carrier alone on cartilage health, a high one-time dose of 10 μM mAv, which is 10× higher than that used to deliver 10 μM Dex in condition (v) above, was also tested in the absence of IL-1α. Note that mAv here refers to 1:4 mAv configuration. Media was changed every 2 days and IL-1α was replenished at each medium change. […] IL-1α concentration was chosen as it represents a moderately aggressive cytokine treatment.
Chondrocyte viability was analyzed by staining cartilage explants with FDA (4.0 mg/mL) and PI (10.0 mg/mL) for live (green) and dead (red) cells, respectively. Slices were washed with PBS and imaged at 4× magnification (Nikon Eclipse Ts2R). The live and dead images were overlaid using ImageJ. At the end of the culture, tissue explants were incubated with media containing 1× resazurin sodium salt (alamarBlue assay) for 3 h in dark at 37° C. and 5% CO2. Cell metabolic activity was estimated by measuring fluorescence at 530 nm excitation and 590 nm emission wavelengths.

For series [4] the test system is unchanged. The series is described as follows: IL-1α treated cartilage explant culture OA model: chondrocyte metabolism (alamarBlue). Type of series: cell-based. The following applies: Day 16. The procedure:
3 mm diameter cartilage explants harvested from calf knee joints were equilibrated separately in serum free culture media containing 96.2% low-glucose DMEM, 1.0% HEPES, 1.0% NEAA, 1.0% PSA, 0.4% proline and 0.4% ascorbic acid for 48 h at 37° C., 5% CO2 for 2 days prior to treatment. Tissue explants for all treatment conditions were matched for depth and location to prevent any bias. To test the biological effectiveness of mAv-Dex, equilibrated cartilage explants were treated with or without IL-1α (2 ng/mL) for 16 days in combination with (i) a single dose of 100 nM free Dex, (ii) a continuous dose of 100 nM free Dex, (iii) a single dose of 10 μM free Dex (iv) a single dose of fast release mAv-Dex (10 μM Dex) or (v) a single dose of controlled release mAv-Dex (2:1:1) (10 μM Dex). To evaluate the effect of mAv carrier alone on cartilage health, a high one-time dose of 10 μM mAv, which is 10× higher than that used to deliver 10 μM Dex in condition (v) above, was also tested in the absence of IL-1α. Note that mAv here refers to 1:4 mAv configuration. […]
Chondrocyte viability was analyzed by staining cartilage explants with FDA (4.0 mg/mL) and PI (10.0 mg/mL) for live (green) and dead (red) cells, respectively. […] Cell metabolic activity was estimated by measuring fluorescence at 530 nm excitation and 590 nm emission wavelengths.
In general terms: The colour change of resazurin is a common sign of viable cells or microbes.

The subject of series [5] is IL-1α treated cartilage explants. Briefly: IL-1α treated cartilage explant culture OA model: Safranin-O histology. The following applies: 16 days. In kind it is cell-based, bovine. The procedure:
as §1
Cartilage explants were fixed in 4% formalin, embedded in 0.75% agarose for ease of handling, dehydrated in a graded series of ethanol and xylenes, and embedded in paraffin. Transverse sections (to obtain full thickness cartilage slices with superficial and deep zones) were taken at 5 μm thickness. These sections were stained with 0.5% Safranin O, 0.02% Fast Green and Weigert's iron hematoxylin for GAG detection. Adjacent sections underwent antigen retrieval using 0.1% hyaluronidase, 0.1% pronase in PBS for 30 min at 37° C., then were immunostained for type II collagen using 1 μg/mL mouse IgG1 (clone II-II6B3) or normal mouse IgG1 as isotype control. Antibody detection was performed using a VectaStain Elite ABC kit with 3,3-diaminobenzidine staining. Stained sections were imaged using a Zeiss Axioplan2 equipped with an AxioCam HRc camera.

For series [6] the following is noted: multiple IA injections, 2.5 mg every 3 days or 0.5 mg/kg; cited from earlier work.
For series [7] the following is noted: one week following ACLT, read at 3 weeks, vs free Dex; cited from earlier work.
For series [8] the following is noted: IA 40 mg every 3 months for 2 years; cited from earlier work.
Another series has as its system chondrocytes. The following applies: incubation with chondrocytes in culture; cited from earlier work.
The nature of series [9]: Zeta potential (Zetasizer Nano-ZS90). Type of series: physicochemical. The following applies: for Zeta potential (ζ): nanopure water, 0.45 mg/mL, Mean ± SD. From the text: • 1. Use the procedure in Section F to conjugate 4 moles of biotin-PEG-IOX with Avidin at its biotin binding sites to synthesize mAv-IOX. • 2. Use Zetasizer Nano-ZS90 to detect the zeta potential of unmodified Avidin and mAv-IOX in DI water; the zeta potential (Q, mV) of Avidin and mAv-IOX should be around 18.3±0.5 mV and 8.69±0.7 mV, respectively. • 3. Obtain 3 mm diameter×1 mm height cylindrical cartilage discs with intact superficial zone (SZ) from femoropatellar grooves of 1-2-week-old bovine knee joints and freeze them in PBS containing protease inhibitors (PI) until further use. • 4. […] Use a freezing point osmometer to balance the osmolality of these contrast agent solutions to 400±20 mOsm/kg by adding 1 M sodium chloride solution dropwise. • 5. […] Secure cartilage explants using low X-ray-absorption foam inside a 20.5 mm CT scan tube. Ensure that the cartilage explant stays secured in the foam during CT imaging. • 7. Take one of the equilibrated cartilage explants from contrast agent solution and gently using Kimwipes to remove solution from the tissue surface. • 8. Set CT35 with an isotropic voxel resolution of 10 μm, 70 kVp tube voltage, 113 μA current, and 200 ms integration time method. The CT data will be saved as DICOM format. ImageJ software will automatically display Hounsfield Unit (HU) by importing DICOM images. • 9. Process the CT imaging data acquired from CT35 using ImageJ software: (i) Go to Image→Stacks→Images to Stack to convert CT imaging data to a cartilage stack. (ii) Go to Image→Stacks→Reslice and select ‘starting at top’ to acquire a new stack showing vertical section of cartilage from superficial zone (SZ) to deep zone (DZ). […] The GAG content (mg/mg wet weight) is calculated as: […]
PEGylation of Avidin in 1:2 and 1:4 mAv was further confirmed by using H-Class Acquity UPLC (Waters Corp, Milford, MA) equipped with an Acquity UPLC BEH200 Size Exclusion Column (200 Å, 1.7 μm column, 4.6×300 mm) with 20 mM ammonium bicarbonate buffer as the mobile phase at 0.2 mL/min. Avidin was detected at 280 nm. […]

Series [10] is described as follows: Hydrodynamic diameter estimated from molecular weight (Stokes-Einstein equation). Type of series: physicochemical. From the text: As such, its intra-cartilage transport diffusivities (estimated using setup in FIG. 3A) were not affected either (Table 1). The hydrodynamic diameter of Avidin and mAv was estimated from their molecular weights using the Stokes-Einstein equation. The net size of mAv was within the 10 nm limit enabling it to penetrate through the full thickness of cartilage similar to unmodified Avidin.

The conditions of series [11]: rabbit, in vivo; cited from earlier work.
In series [12] the test system is bovine cartilage explants. The following applies: cited from earlier work.
A short description of series [13]: Equilibrium uptake in cartilage explants (uptake ratio Ru). The following applies: 50% GAG depleted cartilage (mid-stage OA).
Experimental: Cartilage explants were harvested from the femoropatellar groove of 2-3-week-old bovine knees (Research 87, Boylston, MA) with a 3 mm diameter biopsy punch. The cylindrical plugs were then sliced to obtain the superficial 1 mm layer of cartilage, and frozen until use. […] Cartilage disks were equilibrated in 300 μL of 8.5 μM of labeled Avidin, 1:2 mAv or 1:4 mAv in presence of protease inhibitors for 24 h in a 96-well plate at 37° C. on gentle shaking to prevent formation of stagnant layers. To minimize evaporation, the empty wells in the plate were filled with DI water and the plate was wrapped in parafilm. At the end of the experiment, the surfaces of each disk were quickly blotted with Kimwipes and the wet weight was measured. The equilibrium bath fluorescence was measured using a plate reader (Synergy H1, Biotek). The final concentration was calculated based on a linear calibration correlating fluorescence to concentration of labeled Avidin. The moles of solutes absorbed into the cartilage were calculated using the difference between the initial and equilibrium concentration of the bath. The concentration of solutes inside was calculated by normalizing the number of moles inside cartilage to the wet weight of the tissue. The uptake ratio (Ru) was defined as the ratio of the concentration of solutes inside the tissue (Ctissue) to that of the solute in the equilibrium bath (Cbath). […]
Series [14] in a line: Intra-cartilage diffusion kinetics (non-equilibrium one-dimensional diffusion, transport chamber). The following applies: 3 μM upstream, 400-600 μm cartilage disk; Mean ± SD.
Experimental: The interior walls of the transport chamber were equilibrated in 0.5% nonfat-dried bovine milk solution in PBS for 15 min to lessen non-specific binding of solutes to inner walls of the transport chamber. Subsequently, the compartments of chamber were rinsed with DI water. 3 μM solution of labeled Avidin or mAv was added to the upstream chamber. A 6 mm diameter cartilage disk of 400-600 μm thickness was placed between the upstream and downstream compartments. Concentration of fluorescently labeled solutes in the downstream chamber was measured over time by exciting the downstream solution using a 480 nm laser line and detecting the emission. Non-equilibrium diffusion curves were thereby obtained by plotting normalized downstream concentration (CD) to upstream concentration (Cu) over time. Effective Diffusivity (DEFF), which is the diffusivity of solutes in cartilage while binding interactions exist within the tissue was estimated as follows:
[formula] where L corresponds to cartilage thickness, and τLag is the time it takes to reach a steady state flux. τLag was estimated using the time-axis intercept of the linear slope of the normalized concentration versus time.

With `C[C@@H]1C[C@H]2[C@@H]3CCC4=CC(=O)C=C[C@]4(C)[C@@]3(F)[C@@H](O)C[C@]2(C)[C@@]1(O)C(=O)CO` [Dex, dexamethasone], the “suppression of IL-1α induced GAG loss” value is recorded as “effectively suppress IL-1α induced GAG loss” in series [1] (continuous dose 100 nM), “not effective” in series [1] (single dose 100 nM) and “significantly suppressed IL-1α induced GAG loss” in [1] (single dose 10 μM Dex). In addition, the “lower nitrite levels compared to single dose of 100 nM Dex” value in series [2] is recorded as 3.5 ×. For the same compound, the “rescue of chondrocyte viability” value in series [3] (continuous dose 100 nM) is recorded as “rescued effectively”; in series [3] (single dose 100 nM), “not with a single dose”; in series [3] (single dose 10 μM Dex, listed as free Dex), “not as effective”. The “rescue of IL-1α reduced cell metabolism rates” value in [4] is “not rescued”. Further, the “Safranin-O GAG staining” value in series [5] (continuous dose 100 nM) is “mostly rescued”; in series [5] (single dose 100 nM), “marginally affected”; in series [5] (single dose 10 μM Dex) it was “protected GAG content to a greater extent than at 100 nM”. Further, in [6], the “inflammation and cartilage protection” value was “significantly reduce inflammation and protect cartilage”. In series [6], the “toxicity of high multi-dose regimen” value is recorded as “systemic toxicity in vital organs”.
For “Av-Dex: Avidin covalently conjugated with 4 moles of Dexamethasone using its four biotin binding sites”, in series [7], the “efficacy of single low dose IA injection” value was “suppressed injury induced joint inflammation, synovitis, incidence of osteophyte formation and restored trabecular properties at 3 weeks significantly greater than free Dex”.
As to `CC1(C)O[C@@H]2C[C@H]3[C@@H]4CCC5=CC(=O)C=C[C@]5(C)[C@@]4(F)[C@@H](O)C[C@]3(C)[C@]2(C(=O)CO)O1` [TCA, triamcinolone acetonide], in [8], the cartilage loss entry is reported as “greater cartilage loss compared to saline”.
Turning to RRAAAARRAAAARRAAAARR [CPC+8], the uptake by chondrocytes result with chondrocytes is listed as “not uptaken by the chondrocytes”.
Consider “1:2 mAv: multi-arm Avidin containing two biotinylated 8-arm PEGs”, for which, in series [9], the “Zeta potential (ζ)” value is on record as 20.3 ± 0.3 mV. Further, in series [10], the “Diameter (net size)” value is reported as about 7.6 nm.
Consider “Avidin: cationic glycoprotein with four biotin binding sites”, for which the zeta potential entry in series [9] (in DI water, 'should be around') is “around 18.3±0.5 mV”. Moreover, in series [9], the “Zeta potential (ζ)” value is listed as 18.3 ± 0.5 mV. For the same compound, the “Diameter (net size)” value in series [10] is listed as about 7.0 nm. Moreover, in [11], the intra-cartilage uptake ratio is reported as 180 and the “presence in cartilage after IA administration” value was “present through the full thickness of cartilage two weeks following its IA administration”. Besides, in series [12], the “Avidin dose shown not to affect GAG loss, chondrocyte viability or biosynthesis rates” value is “less than 100 μM”. For the same compound, the “drop of uptake following 50% GAG depletion compared to healthy condition” value in series [13] was determined as 13.2 ×. Moreover, the “intra-cartilage effective diffusivity DEFF” value in [14] is given as 8.4 ± 2.0 × 10^−8 cm^2/s.
